The source of these data is a melting point compilation (Tetko et al.; mined from patent text by program, amines drawn as free bases though some values may be those of a salt).

SMILES strings stand for the structures.

As to `c1ccc(Cn2cnc(-c3cnc(-c4ccccc4)nc3)c2)cc1`, the melting point – broadly, the temperature, or range, at which the solid turns liquid – was found to be 195 °C.
Under `CCCCc1ncc(/C=C(/C(=O)O)C(CCCC)c2cccs2)n1Cc1ccccc1Cl` (stereo not drawn) stands 161 to 163 °C.
Under `CC(=O)CC(=O)CCC(=O)CC(C)=O` stands 62.7 to 64 °C.
As to `Cc1[nH]c(=O)c(-c2csc(-c3ccnc(NCCNC(C)C)c3)n2)cc1C(=O)NCCNC(C)C`, the melting point was above 260 °C.
Under `CCCCOC(=O)C(N)C=CCP(=O)(O)O` (stereo not drawn) stands 160 to 161 °C.
Under `Oc1ccc(N2CCN(CCC3C=Cc4ccccc43)CC2)cc1` (stereo not drawn) stands 228 °C.
Under `CCCCOc1ccc(Oc2ccc(C#CC(C)N(O)C(N)=O)o2)cc1` (stereo not drawn) stands 128 to 129 °C; under `Cc1cn(CCC(=O)O)c(=O)[nH]c1=O`, 118 to 121 °C.
`O=C(O)c1cnc2ccc(C3CCCCC3)cc2c1O`: the melting point fell in the range of 263 to 265 °C.
Under `COc1cc(CC(=O)CCNCCOc2ccc(C(=O)O)cc2OC)ccc1NC(=O)Nc1ccccc1C` stands 115 to 118 °C; under `Nc1cc(Oc2cccc(O)c2)ccc1[N+](=O)[O-]`, 137 °C; under `CCOCc1nc2c(N)nc3ccccc3c2n1CC(C)(C)N`, 161 to 162 °C.
Under `CC(=O)NC[C@H]1NC(=O)[C@H]1NC(=O)Cc1ccccc1` (relative stereo) stands 200 to 202 °C; under `CCNc1nc2cc(COc3cccc(C=O)c3)ccc2o1`, 85 to 90 °C.
Under `O=C(c1ccc(Cl)cc1)c1ccc2c(c1)C(=O)N(Cc1cccnc1)C2=O` stands 132 to 134 °C; under `COc1ccccc1NC(=O)Nc1cccc(-n2c(=O)c(CCC(=O)ON3C(=O)CCC3=O)nc3cccnc32)c1`, 235 to 237 °C; under `C=CCc1cc(Nc2ccn(-c3ccccc3)n2)cc(CC=C)c1OC(C)=O`, 110 to 111 °C.
For the compound `O=C1CCC(c2ccc(Cl)c(Cl)c2)O1` (stereo not drawn), the melting point was in the range of 54 to 55 °C.
Under `C1=C2NCCCN2Cc2ccccc2C1c1ccccc1` (stereo not drawn) stands 227 to 228 °C; under `O=C1C(Cl)=C(c2ccccc2)C(=O)N1Nc1ccc(F)cc1`, 115 to 117 °C.
Under `COc1ccc(-c2nc3ccc(C(C)(C)CNC=O)cc3[nH]2)cn1` stands 217 to 221 °C.
Under `C=CCc1c(O)cc(C)c(O)c1C` stands 114 to 116 °C; under `COCCCC(=O)c1cc(C(=O)O)c2cc(Cc3ccc(F)cc3)cnc2c1O`, 226 to 228 °C.
The compound `Cc1cccc(-c2sc(N)nc2-c2ccnc(-c3ccc(OCC(N)=O)cc3)c2)n1` gave a melting point of 191 °C.
Under `O=C(O)C1(C(=O)Nc2cc(Cl)cc(Cl)c2)CCC1` stands 159 to 160 °C; under `CCCC[C@H](NC(=O)[C@H](CC(C)C)NC(=O)c1ccccc1C)C(=O)CSCc1ccco1`, 118 to 119 °C; under `O=C(O)c1cn(OCC2CN(Cc3ccccc3)CCN2Cc2ccccc2)c2cc(F)c(F)cc2c1=O` (stereo not drawn), 158 to 159 °C.
For the compound `CN1CCN(S(=O)(=O)c2ccccc2NC(=O)N[C@@H](Cc2ccc(NC(=O)c3c(Cl)cncc3Cl)cc2)C(=O)O)CC1`, the melting point was determined as 189 °C.
Under `Clc1ccc2c(c1)C(c1ccccc1)=NCc1ccccc1-2` stands 118 to 119 °C; under `CCOC(=O)c1ccc(OCC(C)O)cc1` (stereo not drawn), 52 to 53 °C; under `COC(=O)c1cc(C(=O)NNC(C)=O)c2cc(Cc3ccc(F)cc3)cnc2c1O`, 208 to 209 °C.
Compound `CC(=O)SC/C(=C/c1ccccc1)C(=O)O` showed a melting point of 57 °C.
Under `COC(=O)c1nc(Br)c(F)c(NC(C)=O)c1Cl` stands 190 to 192 °C.
Under `CCn1c(C)c(C(c2ccco2)S(=O)(=O)c2ccc(C)cc2)c2ccccc21` (stereo not drawn) stands 99.8 to 105 °C; under `COc1cc(OC)nc(NN)n1`, 94 °C.
Under `CN1C(C(=O)NC2CCC(O)CC2)C(c2cccc(Cl)c2F)C2(C(=O)Nc3cc(Cl)ccc32)C1CC(C)(C)C` (stereo not drawn) stands 188 °C; under `CN(CCNC(=NCCSCc1csc(NC(=N)N)n1)NC#N)CCN(Cc1ccc(F)cc1)c1ccccn1`, 109 °C; under `COc1ccc(CN2C(=O)C3(COc4cc5c(cc43)OCCO5)c3ccccc32)cc1OC` (stereo not drawn), 209 to 211 °C.
`CCN(CC)CCOc1ccc(C(=O)c2c(-c3ccccc3)oc3ccccc23)cc1` registered a melting point of 125 to 127 °C.
Under `CN1C(=O)Cn2cc(C(=O)NCc3ccc(Cl)cc3)c(=O)c3cc(I)cc1c32` stands 278 to 283 °C.
Take `O=C1N(CC2COCCO2)c2ccccc2C12COc1cc3c(cc12)OCCCO3` (stereo not drawn): the melting point lay within 137 to 139 °C.
Under `OCCCSc1nc2ccc(Cc3ccccc3)cc2[nH]1` stands 103 to 105 °C; under `O=C(Nc1ccc(OCCCN2CCOCC2)c2ccccc12)c1cc(F)cc(N2CCCCC2)c1`, 90 to 92 °C.
Regarding `COc1cccc(-c2n[nH]c(-c3ccccc3COC(C)=O)n2)c1`, the melting point is 83 to 87 °C.
Under `CCOC(=O)Cc1ccc2c(c1)C(=O)C(NC(=O)OC)CC2` (stereo not drawn) stands 95 to 97 °C; under `Nc1sc2c(c1C(=O)c1ccc(I)cc1)CCN(C(=O)Nc1ccccc1)C2`, 89 to 90 °C.
Under `O=C(O)CCCCC(Cc1ccc(F)cc1)C(=O)O` (stereo not drawn) stands 80 to 81 °C; under `N=C(N)NC(=O)c1cn(-c2ccnc3ccccc23)c2ncccc12`, 164 °C; under `CCCCCCCCCCc1ccc(NC(=O)c2cnc(C(=O)NCC(=O)OCC)c(OC)c2)cc1`, 155 to 157 °C.
Under `COC(=N)CCCCc1csc(NC(=N)N)n1` stands 143 to 145 °C; under `CCOC(C#CC(=NC(c1ccccc1)(c1ccccc1)c1ccccc1)C(F)F)OCC`, 173 to 175 °C.
With `CCOC(=O)C(C#N)=Cc1c(Cl)n(Cc2cccc(Cl)c2)c2ccccc12`, the melting point was 130 to 132 °C.
Under `CC(C)(C)OC(=O)N1CCN(c2cccc([N+](=O)[O-])c2)C(=O)C1` stands 122 to 123 °C.
Regarding `[N-]=[N+]=CC(=O)[C@H](O)[C@@H](O)[C@@H](O)CO`, the melting point was in the range of 93 to 94 °C.
Under `O=C(NC(=S)Nc1ccc(Cl)c(Cl)c1)c1c(Cl)cccc1Cl` stands 240 °C; under `O=C(c1ccc(F)cc1)c1ccc2[nH]c(=O)nc(-c3cccc(Cl)c3)c2c1`, 226 °C; under `CCn1c(C2CCCO2)nc2c(N)nc(OCCc3ccccc3)nc21` (stereo not drawn), 121 to 123 °C.
For `Cc1ccccc1C=C1CSCC(=Cc2ccccc2C)C1=O`, the melting point was 123 to 125 °C.
`CC(C)(C)c1ccc(-c2cc3ccc(C(=O)O)cc3s2)cc1`: the melting point was 318 °C.
Under `O=C1CC(C(=O)O)(c2ccc(F)cc2)c2ccccc21` (stereo not drawn) stands 106 to 108 °C; under `COc1cc2nc(N3CCN(C(=O)c4ccco4)CC3)[nH]c2cc1OC`, 143 to 145 °C; under `N#Cc1c(N2CCCCC2)cc(-c2ccc(F)cc2)c2c1C(=O)c1ccccc1-2`, 152 to 154 °C.
Under `O=C(O)C12CC3CC(F)(CC(F)(C3)C1)C2` stands 162 to 164 °C; under `COc1ccc2c(c1)C(=O)c1c-2c(O)nc2ccccc12`, 294 to 296 °C; under `CC(C#N)c1cccc(C(=O)c2ccccc2)c1` (stereo not drawn), 88 to 94 °C.
Under `CCCSc1ncc(CO)n1Cc1ccccc1Cl` stands 98 to 101 °C.
The compound `O=C1C2=C(C(=O)N1CCO)c1ccccc1CC2` returned a melting point of 120 to 121 °C.
Under `CC(C)c1csc(/C=C/c2cccc(NC(=O)Cc3ccccc3C(=O)O)c2)n1` stands 203 to 204 °C; under `N#Cc1cc(-c2c3ccccc3cc3sc4ccccc4c23)cc(C#N)c1O`, 274 to 276 °C.
Under `N=C(Nc1cc(Cl)cc(NC(=O)C=Cc2ccccc2Cl)c1)c1ccc(NCc2ccccn2)cc1` stands 119 to 122 °C; under `COc1ccc(Sc2nn(-c3ccc(OC)cc3)c(=O)c(C#N)c2C)cc1`, 188 to 190 °C; under `Cn1cncc1C(O)(c1ccc(C=NO)cc1)c1ccc2[nH]c(=O)cc(-c3cccc(Cl)c3)c2c1` (stereo not drawn), 230 °C.
Under `CCn1c(=O)c(C(N)=O)c(O)c2ccc(C)nc21` stands 240 to 242 °C.
`Cc1cccc2c3c([nH]c12)CCCC3=O` gave a melting point above 247 °C.
Under `COc1c(Cl)cc(NC(=O)OCCCl)c(OC)c1NC(=O)OCCCl` stands 87 °C.
Under `CCOC(=O)C(Cc1ccc(OC)c(OC)c1)NC(=O)c1ccc(OC(C)C)cc1` (stereo not drawn) stands 126 to 128 °C; under `COc1cc(C=CC(=O)CCCO)cc(OC)c1`, 74 to 77 °C.
Under `N#CC1CN1C(=O)c1ccc(Cl)cc1Cl` (stereo not drawn) stands 95 to 97 °C; under `O=C(O)/C=C/c1ccc(-c2nc3c(=O)n(CC4CCCCC4)c(=S)n(CC4CCCCC4)c3[nH]2)cc1`, above 300 °C; under `CC(=O)NC[C@H]1CN(c2cc(F)c(N3CCC(n4nnc(N5CCOCC5)n4)CC3)c(F)c2)C(=O)O1`, 232 to 234 °C.
Turning to `Cc1cc(-n2ccnc2)c2cccc(OCc3c(Cl)ccc(S(=O)(=O)N4CCC[C@H]4C(=O)NCc4ccccc4)c3Cl)c2n1`, the melting point was found to be 116 °C.
Under `Nc1cc(C(c2cc(F)ccc2F)S(=O)(=O)c2ccc(Cl)cc2)c(Br)cn1` (stereo not drawn) stands 204 to 206 °C; under `OC(CN1CCNCC1)C(O)(c1ccccc1)C1CCCC1` (stereo not drawn), 50 °C; under `CCCCCC(=O)c1cc2c(cc1/C=C/c1ccc(C(=O)O)cc1)C(C)(C)CCC2(C)C`, 118 to 119 °C.
Under `COc1cc(C)cc(OC)c1CCCCCNC(=O)[C@@H](CCCCNC(=O)C=Cc1ccccc1)NC(=O)c1cc2ccccc2n1CC(=O)O` stands 172 °C.
With `COC(=O)NCCCn1c(-c2ccc(Br)cc2)csc1=Nc1ccccc1`, the melting point fell in the range of 132 to 134 °C.
Under `CC(=O)NC1=NN(c2ccccc2)CC1C` (stereo not drawn) stands 149 to 150 °C; under `CCOC(=O)C1CCc2c1sc(C)c2C(=O)c1ccc(SC)cc1` (stereo not drawn), 62 to 64 °C.
